Assay results published in PMC12193058, “Discovery of Small Molecules Targeting Norovirus 3CL Protease by Multi-Stage Virtual Screening” (International Journal of Molecular Sciences, 2025).

What was measured:
[1] = system: Murine norovirus (MNV, strain MNV-1.CW1); test: Antiviral assay: MNV-infected RAW264.7 cells, protection from CPE (MTS); format: cell-based
Description: (§1) Murine norovirus (MNV, strain MNV-1. CW1) was propagated as previously described. HG23 cells and RAW 264.7 cells were maintained as described earlier. The cells were incubated at 37 °C in a humidified atmosphere of 5% CO2. To obtain virus stock, once full CPE was observed, the cells underwent two freeze–thaw cycles and the virus was harvested from the supernatants after centrifugation (10 min, 1000× g) and stored at […]. The viral titer was determined by endpoint titration.
(§2) The experiment was performed as previously described. In short, RAW264.7 cells (1 × 10^4 cells/well) were infected with MNV.CW1 in the presence of a dilution series of compounds. Antiviral activity and cytotoxicity were determined using a colorimetric assay using 3-(4,5-dimethylthiazol-2-yl)-5-(3-carboxymethoxyphenyl)-2-(4 sulfophenyl)-2H-tetrazolium (MTS). The 50% effective concentration (EC50) was defined as the compound concentration that protected 50% of the cells from CPE. The cell viability % was calculated as (ODtreated/ODCC) × […] and the 50% cytotoxic concentration (CC50) was defined as the compound concentration that reduces the number of viable cells by 50%. HuNoVGI.1replicon: The experiment was performed as described earlier with minor modifications. In short, HG23 cells (7.5 × 10^2 cells/well) were seeded into the wells of a 96-well plate without G418 (Geneticin Selective Antibiotic). After 24 h of incubation, the tested compounds were added. The cells were incubated for another 72 h; then they were collected for RNA load quantification using RT-qPCR [34]. The EC50 values were defined as the compound concentration that led to a 50% reduction in the relative HuNoV GI.1 replicon RNA levels.

[2] = Cytotoxicity assay (MTS) in non-infected cells; format: cell-based; settings: mouse, RAW264.7 cells (non-infected); cytotoxic concentration to induce 50% death of non-infected cells; mean of two to three independent experiments
Description: as §1, §2

CC1=NN=C(O)C1CC(=O)N/N=C/c1cccc(Br)c1 (stereo not shown) [YY-0182] gave an EC50 [1] greater than 50 µM and a CC50 [2] greater than 50 µM.

In the case of COc1cc(C(CC(=O)NCC(=O)NCc2ccco2)c2oc(C)cc(=O)c2O)ccc1O (stereo not shown) [YY-0420], the EC50 [1] is reported as greater than 50 µM and the CC50 [2] is reported as greater than 50 µM.

In the case of Cc1[nH][nH]c(=O)c1CC(=O)N1C[C@@H](c2ccccc2)O[C@@H](C(C)C)C1 [YY-0587], the EC50 [1] is reported as greater than 50 µM and the CC50 [2] is reported as greater than 50 µM.

In the case of CCC(SC1=Nc2ccccc2C2=NC(=O)C(CCC(=O)NCc3ccc(F)cc3)N12)C(=O)Nc1cccc(OC)c1 (stereo not shown) [YY-0734], the EC50 [1] is reported as greater than 50 µM and the CC50 [2] is reported as greater than 50 µM.

Work on Cc1cc(N)n(CC(=O)N(Cc2cccnc2)Cc2ccc3c(c2)OCO3)n1 [YY-0744] yielded an EC50 [1] greater than 50 µM and a CC50 [2] greater than 50 µM.

For Cc1nc2ccc(NC(=O)N3CCNC(=O)C3CCO)cc2nc1C (stereo not shown) [YY-0809], the EC50 [1] was greater than 50 µM and the CC50 [2] was greater than 50 µM.

For COc1cncc(C(NC(=O)c2cc(=O)[nH]c3ccccc23)[C@H]2C[C@H](O)C2)c1 (stereo partly shown) [YY-3656], the EC50 [1] was greater than 50 µM and the CC50 [2] was greater than 50 µM.

For O=C(NC1CCCc2ccccc21)[C@H](Cc1ccccc1)NC(=O)N1CC(O)=Nc2ccccc21 (stereo partly shown) [YY-3724], the EC50 [1] was greater than 50 µM and the CC50 [2] was greater than 50 µM.

In the case of CC(C)C1C(O)=Nc2ccccc2N1C(=O)N[C@@H](Cc1ccccc1)C(=O)N[C@@H](CCC(N)=O)C(=O)O (stereo partly shown) [YY-4047], the EC50 [1] is reported as greater than 50 µM and the CC50 [2] is reported as greater than 50 µM.

For CNC(=O)c1ccc(C)c(NC(=O)NCCN2CCNC2=O)c1 [YY-4095], the EC50 [1] was greater than 50 µM and the CC50 [2] was greater than 50 µM.

Compound COc1ccc(CCNC(=O)[C@H](Cc2ccccc2)NC(=O)N2CC(O)=Nc3ccccc32)cc1 [YY-4204] has an EC50 [1] greater than 50 µM and a CC50 [2] greater than 50 µM.

COc1ccc(C(CC(=O)N2CCc3c([nH]c4ccccc34)C2)c2oc(C)cc(=O)c2O)cc1O (stereo not shown) [YY-4958] gave an EC50 [1] greater than 50 µM and a CC50 [2] greater than 50 µM.

CCCCNC(=O)[C@H](Cc1ccccc1)NC(=O)N1CC(O)=Nc2ccccc21 [YY-6127] gave an EC50 [1] greater than 50 µM and a CC50 [2] greater than 50 µM.

COc1ccc(CCN(C(=O)Cc2nnc(O)c3ccccc23)[C@@H](C)C(N)=O)cc1 [YY-8610] showed an EC50 [1] greater than 50 µM and a CC50 [2] greater than 50 µM.

O=C(ON1C(=O)CCC1=O)[C@H](Cc1ccccc1)NC(=O)N1CC(O)=Nc2ccccc21 [YY-9242] gave an EC50 [1] greater than 50 µM and a CC50 [2] greater than 50 µM.

O=C(NCc1cccc(Cl)c1)[C@H](Cc1ccccc1)NC(=O)N1CC(O)=Nc2ccccc21 [YY-9773] showed an EC50 [1] greater than 50 µM and a CC50 [2] greater than 50 µM.

COc1cc(NC(=O)[C@H](Cc2ccccc2)NC(=O)N2CC(O)=Nc3ccccc32)cc(OC)c1 [YY-9837] gave an EC50 [1] greater than 50 µM and a CC50 [2] of 45 µM.
